Assay results: patent publication US9144598B2, “Reverse thermal gels and their use in cell therapy” (University of Pittsburgh—Of the Commonwealth System of …, priority 2010, dated 2015)
No end group written: not given here.

How the values were obtained:
SH-SY5Y = experiment: 2D neuronal cell culture: cell attachment and neurite outgrowth; assay type: cell-based; details: for neurite outgrowth without RA / neurite outgrowth with RA: 14-day culture; for neurite outgrowth with RA: 10 μM retinoic acid from day 7; for cell attachment on surface: 15% (wt) gel or laminin coated plate
Description: Cells, SH-SY5Y (ATCC, CRL-2266), were cultured in DMEM/F12 (1:1) medium with 10% fetal bovine serum (FBS), and 1% antibiotics. The cells were incubated in a humidified atmosphere with 5% CO2 at 37° C. The medium was refreshed every three days until the cells reached 95% confluence. The cells were harvested from the petri dish by incubation in 1 ml of trypsin solution (0.25%) for 5 min, neutralizing with 5 ml of serum-supplemented medium, centrifugation and removal of supernatant. The cell pellets were resuspended in serum-supplemented medium and 5×10^3 cells was used immediately for 2D neuronal cell culture.
Fifty μl of each solution (15%, wt) of pure reverse thermal gel and IKVAVS-GEL was transferred into 96-well plate on 37° C. heating plate. After 5 min, cell suspension (5×10^3 cells) in 150 μl of medium was added on top of the gel. For a control, the same number of cell suspension in 200 μl of medium was transferred into laminin coated 96-well plate. A 100 μl of medium was refreshed every two days. The cell growth was examined on a microscope. After 7-day culture, 10 μM of retinoic acid (RA) was added and neurite outgrowth was monitored on a microscope.

[1] = buffer
Description: The storage modus (G′) of the polymer solutions in phosphate buffered saline (PBS) solution was measured by rheometer from 20° C. to 55° C.

Sprague Dawley rats = details: rat, in vivo, sc
Description: In vivo biocompatibility was evaluated in Sprague Dawley rats.

Row | temperature range in which it remained gel [1] | Substance | neurite outgrowth without RA (SH-SY5Y) | neurite outgrowth with RA (SH-SY5Y) | cell attachment on surface (SH-SY5Y) | inflammatory response (Sprague Dawley rats)
1 |  | IKVAVS-GEL: IKVAVS (SEQ ID NO: 21) conjugated reverse thermal gel (also: conjugated to reverse thermal gel; listed as Homo sapiens) | much better than that on pure reverse thermal gel | much better than that on pure reverse thermal gel | attached well | 
2 | 37-40 °C | poly(ethylene glycol)-poly(serinol hexamethylene urethane) [ESHU] |  |  |  | well tolerated inflammatory response
3 |  | laminin [reference compound] | some short neurite outgrowth | much dense and longer neurite outgrowth | attached very well | 
